PMC8213057, “Targeting ALK2: An Open Science Approach to Developing Therapeutics for the Treatment of Diffuse Intrinsic Pontine Glioma” (Journal of Medicinal Chemistry, 2020)
“And” between values parts separate entries of the source, which are not always exact repeats. Equal entries are not always repeated.

What was measured:
[1] = mouse liver microsomal stability assay; format: in vitro ADME; details: male, CD-1, mouse, microsomes, pH 7.4, mouse liver microsomes, 60 min, 37 °C, read-out: MLM % Remaining at 1h
FGFR3 = FGFR3 (Homo sapiens, UniProt P22607); details: 1 μM; Run 1, Run 2
FGR = FGR (Homo sapiens, UniProt P09769); details: 1 μM; Run 1, Run 2
MKK7 = target: T1, MKK7 (Homo sapiens, UniProt O14733); details: 1 μM; Run 1, Run 2
T1 sequence (O14733 1-419): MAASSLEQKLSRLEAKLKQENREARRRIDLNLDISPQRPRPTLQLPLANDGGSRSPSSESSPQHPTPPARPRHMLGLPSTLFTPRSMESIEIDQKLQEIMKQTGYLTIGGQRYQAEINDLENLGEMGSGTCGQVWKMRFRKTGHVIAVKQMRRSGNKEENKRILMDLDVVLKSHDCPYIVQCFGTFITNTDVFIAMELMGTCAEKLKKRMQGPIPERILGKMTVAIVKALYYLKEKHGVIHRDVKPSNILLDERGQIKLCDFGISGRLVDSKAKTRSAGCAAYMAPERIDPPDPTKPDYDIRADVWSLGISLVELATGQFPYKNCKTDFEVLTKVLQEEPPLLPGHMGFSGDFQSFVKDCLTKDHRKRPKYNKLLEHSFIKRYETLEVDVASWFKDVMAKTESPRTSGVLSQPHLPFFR

PHKg1 = PHKg1 (Homo sapiens, UniProt Q16816); details: 1 μM; Run 1, Run 2
Chain of PHKg1 (Q16816 whole entry): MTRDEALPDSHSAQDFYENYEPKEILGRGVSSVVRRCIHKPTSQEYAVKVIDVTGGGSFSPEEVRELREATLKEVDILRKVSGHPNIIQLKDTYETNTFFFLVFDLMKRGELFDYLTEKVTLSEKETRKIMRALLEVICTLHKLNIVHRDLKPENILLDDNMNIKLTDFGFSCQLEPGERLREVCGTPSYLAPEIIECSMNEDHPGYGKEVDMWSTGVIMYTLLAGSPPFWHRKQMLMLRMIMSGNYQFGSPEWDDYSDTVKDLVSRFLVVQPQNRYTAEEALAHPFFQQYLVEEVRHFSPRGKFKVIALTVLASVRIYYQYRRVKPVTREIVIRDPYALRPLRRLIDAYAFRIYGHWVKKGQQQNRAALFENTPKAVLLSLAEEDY

TRKC = TRKC (Homo sapiens, UniProt Q16288); details: 1 μM; Run 1, Run 2
Chain of TRKC (Q16288 32-839): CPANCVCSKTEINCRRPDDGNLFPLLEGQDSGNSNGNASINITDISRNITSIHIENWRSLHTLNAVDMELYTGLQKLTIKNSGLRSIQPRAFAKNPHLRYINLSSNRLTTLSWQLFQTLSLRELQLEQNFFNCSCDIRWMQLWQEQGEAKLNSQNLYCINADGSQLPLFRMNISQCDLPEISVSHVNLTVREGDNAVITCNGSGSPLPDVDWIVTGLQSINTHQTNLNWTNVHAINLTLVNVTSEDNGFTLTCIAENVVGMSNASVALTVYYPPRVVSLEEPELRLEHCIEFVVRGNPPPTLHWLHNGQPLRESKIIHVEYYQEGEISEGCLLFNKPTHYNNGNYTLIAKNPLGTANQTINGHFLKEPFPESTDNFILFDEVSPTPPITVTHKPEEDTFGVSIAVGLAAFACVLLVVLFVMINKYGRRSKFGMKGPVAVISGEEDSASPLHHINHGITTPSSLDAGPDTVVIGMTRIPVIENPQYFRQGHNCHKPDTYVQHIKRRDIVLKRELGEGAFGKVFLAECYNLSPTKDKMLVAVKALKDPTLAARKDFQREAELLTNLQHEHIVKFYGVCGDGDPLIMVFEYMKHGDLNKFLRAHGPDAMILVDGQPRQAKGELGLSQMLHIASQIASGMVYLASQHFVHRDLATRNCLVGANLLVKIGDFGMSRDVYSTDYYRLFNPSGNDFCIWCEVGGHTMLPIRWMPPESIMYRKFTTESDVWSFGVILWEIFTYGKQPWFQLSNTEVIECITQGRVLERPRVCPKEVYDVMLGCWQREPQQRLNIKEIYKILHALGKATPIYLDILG

YSK4/MAP3K19 = target: T2, YSK4/MAP3K19 (Homo sapiens, UniProt Q56UN5); details: 1 μM; Run 1, Run 2
T2 sequence (Q56UN5 1-1328): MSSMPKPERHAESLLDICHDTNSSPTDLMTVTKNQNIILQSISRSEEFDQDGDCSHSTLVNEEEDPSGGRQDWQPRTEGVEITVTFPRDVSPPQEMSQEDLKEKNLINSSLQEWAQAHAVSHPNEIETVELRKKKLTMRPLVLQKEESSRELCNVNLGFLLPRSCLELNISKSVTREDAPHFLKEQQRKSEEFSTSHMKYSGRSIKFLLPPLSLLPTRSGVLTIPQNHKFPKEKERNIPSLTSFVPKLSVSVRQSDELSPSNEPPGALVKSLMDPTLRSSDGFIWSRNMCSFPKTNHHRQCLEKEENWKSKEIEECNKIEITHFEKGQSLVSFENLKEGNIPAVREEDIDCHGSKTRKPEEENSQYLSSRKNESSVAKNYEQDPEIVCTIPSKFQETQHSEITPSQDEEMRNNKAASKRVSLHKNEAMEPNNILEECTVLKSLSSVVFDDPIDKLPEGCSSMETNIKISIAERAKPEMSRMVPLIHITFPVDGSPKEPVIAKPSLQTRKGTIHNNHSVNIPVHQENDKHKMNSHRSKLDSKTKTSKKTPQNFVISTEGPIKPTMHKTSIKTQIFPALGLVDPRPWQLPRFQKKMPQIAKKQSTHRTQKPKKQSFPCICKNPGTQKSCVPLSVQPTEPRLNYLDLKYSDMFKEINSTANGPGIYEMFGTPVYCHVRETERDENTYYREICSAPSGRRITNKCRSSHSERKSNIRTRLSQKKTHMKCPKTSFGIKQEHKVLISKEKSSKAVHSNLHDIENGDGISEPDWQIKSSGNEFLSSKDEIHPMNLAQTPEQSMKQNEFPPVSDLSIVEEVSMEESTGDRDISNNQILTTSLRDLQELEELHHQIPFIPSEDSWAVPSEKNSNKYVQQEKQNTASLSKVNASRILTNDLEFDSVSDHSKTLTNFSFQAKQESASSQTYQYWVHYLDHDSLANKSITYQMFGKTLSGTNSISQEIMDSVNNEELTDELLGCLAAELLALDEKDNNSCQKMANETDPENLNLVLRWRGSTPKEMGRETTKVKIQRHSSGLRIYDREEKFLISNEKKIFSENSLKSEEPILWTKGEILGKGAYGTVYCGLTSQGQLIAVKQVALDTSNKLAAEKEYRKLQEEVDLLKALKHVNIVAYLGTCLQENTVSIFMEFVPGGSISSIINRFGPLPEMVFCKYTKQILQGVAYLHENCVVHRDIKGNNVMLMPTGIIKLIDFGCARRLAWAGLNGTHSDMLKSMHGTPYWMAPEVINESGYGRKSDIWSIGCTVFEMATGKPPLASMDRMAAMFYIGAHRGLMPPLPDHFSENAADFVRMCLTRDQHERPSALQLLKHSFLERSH

CAMK4 = CAMK4 (Homo sapiens, UniProt Q16566); experiment: biochemical; details: read-out: % enzyme activity, 1 μM; Run 1, Run 2
Chain of CAMK4 (Q16566 whole entry): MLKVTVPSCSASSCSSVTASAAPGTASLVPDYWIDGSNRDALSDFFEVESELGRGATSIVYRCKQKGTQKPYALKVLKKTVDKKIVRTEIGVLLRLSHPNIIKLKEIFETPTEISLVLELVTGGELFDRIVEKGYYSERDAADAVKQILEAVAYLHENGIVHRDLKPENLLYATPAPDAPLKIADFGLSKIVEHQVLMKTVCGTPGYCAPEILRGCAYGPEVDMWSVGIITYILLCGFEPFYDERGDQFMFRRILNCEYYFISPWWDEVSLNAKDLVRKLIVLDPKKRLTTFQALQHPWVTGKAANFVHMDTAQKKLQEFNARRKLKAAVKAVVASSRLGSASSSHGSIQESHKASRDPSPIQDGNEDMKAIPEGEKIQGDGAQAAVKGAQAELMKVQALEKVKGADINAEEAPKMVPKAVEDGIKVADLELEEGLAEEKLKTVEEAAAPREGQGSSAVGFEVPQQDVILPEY

CDK1/cyclin B = CDK1/cyclin B (Homo sapiens, UniProt P06493); experiment: biochemical; details: read-out: % enzyme activity, 1 μM; Run 1, Run 2
Chain of CDK1/cyclin B (P06493 whole entry): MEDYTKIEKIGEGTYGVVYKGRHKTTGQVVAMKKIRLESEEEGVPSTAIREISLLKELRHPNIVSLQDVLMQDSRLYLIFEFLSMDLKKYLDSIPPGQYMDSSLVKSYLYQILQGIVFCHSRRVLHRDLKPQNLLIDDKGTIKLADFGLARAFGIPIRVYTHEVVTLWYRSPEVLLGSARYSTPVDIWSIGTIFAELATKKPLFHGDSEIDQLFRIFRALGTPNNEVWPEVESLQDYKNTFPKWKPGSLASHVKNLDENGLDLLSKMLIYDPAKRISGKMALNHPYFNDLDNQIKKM
Chain of CDK1/cyclin B (P14635 whole entry partner): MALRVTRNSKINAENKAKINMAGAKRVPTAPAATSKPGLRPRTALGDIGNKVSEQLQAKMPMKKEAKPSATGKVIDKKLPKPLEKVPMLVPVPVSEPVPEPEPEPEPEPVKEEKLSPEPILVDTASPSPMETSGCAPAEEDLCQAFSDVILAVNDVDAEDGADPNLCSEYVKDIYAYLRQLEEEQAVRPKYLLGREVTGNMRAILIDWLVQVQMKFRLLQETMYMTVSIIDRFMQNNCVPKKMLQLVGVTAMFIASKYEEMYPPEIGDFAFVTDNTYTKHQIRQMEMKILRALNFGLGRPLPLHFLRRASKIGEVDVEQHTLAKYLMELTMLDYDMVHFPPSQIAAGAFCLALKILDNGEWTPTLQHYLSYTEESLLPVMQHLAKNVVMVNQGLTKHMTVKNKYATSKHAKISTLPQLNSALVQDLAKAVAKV

CDK18/cyclin Y (PCTK3) = CDK18/cyclin Y (PCTK3) (Homo sapiens, UniProt Q07002); experiment: biochemical; details: read-out: % enzyme activity, 1 μM; Run 1, Run 2
Chain of CDK18/cyclin Y (PCTK3) (Q07002 whole entry): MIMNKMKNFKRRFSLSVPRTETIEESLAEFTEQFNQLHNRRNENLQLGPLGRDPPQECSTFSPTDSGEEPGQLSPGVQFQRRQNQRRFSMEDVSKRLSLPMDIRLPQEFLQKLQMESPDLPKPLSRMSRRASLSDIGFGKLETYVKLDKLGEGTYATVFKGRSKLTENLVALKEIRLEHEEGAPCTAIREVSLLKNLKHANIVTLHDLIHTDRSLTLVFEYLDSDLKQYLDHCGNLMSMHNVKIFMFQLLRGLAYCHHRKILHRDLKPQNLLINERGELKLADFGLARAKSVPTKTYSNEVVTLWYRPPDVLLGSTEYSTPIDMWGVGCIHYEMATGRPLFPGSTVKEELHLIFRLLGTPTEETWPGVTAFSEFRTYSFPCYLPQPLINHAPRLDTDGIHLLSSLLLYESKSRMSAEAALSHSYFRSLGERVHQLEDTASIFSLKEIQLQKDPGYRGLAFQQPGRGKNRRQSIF
Chain of CDK18/cyclin Y (PCTK3) (Q8ND76 whole entry partner): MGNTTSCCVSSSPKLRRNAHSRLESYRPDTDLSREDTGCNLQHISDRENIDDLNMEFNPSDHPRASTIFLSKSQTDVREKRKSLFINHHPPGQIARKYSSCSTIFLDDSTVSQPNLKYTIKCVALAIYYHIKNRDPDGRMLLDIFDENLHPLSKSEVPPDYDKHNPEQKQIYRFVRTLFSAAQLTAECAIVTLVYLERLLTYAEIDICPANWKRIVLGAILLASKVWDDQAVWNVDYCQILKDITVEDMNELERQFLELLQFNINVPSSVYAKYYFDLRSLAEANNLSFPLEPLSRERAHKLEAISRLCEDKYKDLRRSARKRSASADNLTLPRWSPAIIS

MLK2/MAP3K10 = MLK2/MAP3K10 (Homo sapiens, UniProt Q02779); experiment: biochemical; details: read-out: % enzyme activity, 1 μM; Run 1, Run 2
Chain of MLK2/MAP3K10 (Q02779 whole entry): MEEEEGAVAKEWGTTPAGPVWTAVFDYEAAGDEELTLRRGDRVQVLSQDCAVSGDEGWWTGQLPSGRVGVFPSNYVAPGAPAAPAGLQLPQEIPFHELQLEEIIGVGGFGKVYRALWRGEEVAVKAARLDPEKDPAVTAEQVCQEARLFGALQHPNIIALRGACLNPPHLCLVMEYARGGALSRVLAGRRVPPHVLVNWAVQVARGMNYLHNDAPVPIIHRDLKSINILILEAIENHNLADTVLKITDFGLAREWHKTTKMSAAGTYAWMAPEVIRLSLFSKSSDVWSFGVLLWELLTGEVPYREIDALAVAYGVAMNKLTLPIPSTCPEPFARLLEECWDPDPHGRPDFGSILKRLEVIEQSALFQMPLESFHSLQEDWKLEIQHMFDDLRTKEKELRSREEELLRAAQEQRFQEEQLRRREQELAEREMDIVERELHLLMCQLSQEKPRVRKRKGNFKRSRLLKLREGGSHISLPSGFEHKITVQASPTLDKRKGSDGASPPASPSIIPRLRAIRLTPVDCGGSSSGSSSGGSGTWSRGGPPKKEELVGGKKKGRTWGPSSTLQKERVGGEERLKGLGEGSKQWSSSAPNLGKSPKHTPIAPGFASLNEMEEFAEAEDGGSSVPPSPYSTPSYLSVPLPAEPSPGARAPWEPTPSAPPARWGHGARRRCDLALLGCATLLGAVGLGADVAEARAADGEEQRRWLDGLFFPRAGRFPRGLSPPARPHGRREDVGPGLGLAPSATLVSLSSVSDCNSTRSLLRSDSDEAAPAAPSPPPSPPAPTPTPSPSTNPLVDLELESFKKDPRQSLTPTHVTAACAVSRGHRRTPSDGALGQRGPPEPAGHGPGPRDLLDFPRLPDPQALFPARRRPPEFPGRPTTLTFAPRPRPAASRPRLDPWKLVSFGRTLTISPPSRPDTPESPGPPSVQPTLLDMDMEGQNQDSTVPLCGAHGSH

SGK1 = target: T3, SGK1 (Homo sapiens, UniProt O00141); experiment: biochemical; details: read-out: % enzyme activity, 1 μM; Run 1, Run 2
T3 sequence (O00141 1-431): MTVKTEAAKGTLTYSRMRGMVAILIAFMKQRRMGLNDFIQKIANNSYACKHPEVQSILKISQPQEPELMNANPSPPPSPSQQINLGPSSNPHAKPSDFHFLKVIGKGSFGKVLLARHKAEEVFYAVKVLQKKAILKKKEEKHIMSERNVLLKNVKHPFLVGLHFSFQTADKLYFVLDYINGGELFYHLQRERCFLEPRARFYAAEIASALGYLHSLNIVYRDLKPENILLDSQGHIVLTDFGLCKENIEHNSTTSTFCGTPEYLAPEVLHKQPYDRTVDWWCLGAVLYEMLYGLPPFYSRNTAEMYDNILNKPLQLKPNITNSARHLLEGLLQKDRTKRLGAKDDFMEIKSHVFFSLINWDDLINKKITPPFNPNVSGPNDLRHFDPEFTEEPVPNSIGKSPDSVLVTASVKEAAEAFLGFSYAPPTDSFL

SRPK2 = SRPK2 (Homo sapiens, UniProt P78362); experiment: biochemical; details: read-out: % enzyme activity, 1 μM; Run 1, Run 2
Chain of SRPK2 (P78362 whole entry): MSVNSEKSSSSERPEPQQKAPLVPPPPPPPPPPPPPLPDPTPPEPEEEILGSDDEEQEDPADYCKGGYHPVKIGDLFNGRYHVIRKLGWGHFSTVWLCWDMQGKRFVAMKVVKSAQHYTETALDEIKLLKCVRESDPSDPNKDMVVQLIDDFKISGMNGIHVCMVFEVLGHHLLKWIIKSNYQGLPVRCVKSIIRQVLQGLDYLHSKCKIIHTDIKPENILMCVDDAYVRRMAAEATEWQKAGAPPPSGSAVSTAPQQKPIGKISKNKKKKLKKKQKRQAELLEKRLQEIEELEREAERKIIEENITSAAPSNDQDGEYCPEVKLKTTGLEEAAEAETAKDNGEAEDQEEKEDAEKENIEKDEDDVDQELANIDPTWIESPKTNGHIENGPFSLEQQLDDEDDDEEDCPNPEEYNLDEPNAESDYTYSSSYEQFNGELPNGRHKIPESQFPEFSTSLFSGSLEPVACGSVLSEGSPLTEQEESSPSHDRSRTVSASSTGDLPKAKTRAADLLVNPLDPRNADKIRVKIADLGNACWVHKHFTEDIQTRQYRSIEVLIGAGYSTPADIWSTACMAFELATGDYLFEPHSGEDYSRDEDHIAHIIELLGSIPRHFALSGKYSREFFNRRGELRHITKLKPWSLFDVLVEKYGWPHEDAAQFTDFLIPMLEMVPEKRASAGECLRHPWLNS

| Structure (SMILES) | % enzyme activity at 1 μM (TGFBR2) | remaining at 1 h, 1 μM [1] [%] | % enzyme activity (FGFR3) [%] | % enzyme activity (FGR) [%] | % enzyme activity (MKK7) [%] | % enzyme activity (PHKg1) [%] | % enzyme activity (TRKC) [%] | % enzyme activity (YSK4/MAP3K19) [%] | remaining activity at 1 µM (CAMK4) [%] | remaining activity at 1 µM (CDK1/cyclin B) [%] | remaining activity at 1 µM (CDK18/cyclin Y (PCTK3)) [%] | remaining activity at 1 µM (MLK2/MAP3K10) [%] | remaining activity at 1 µM (SGK1) [%] | remaining activity at 1 µM (SRPK2) [%] |
| --- | --- | --- | --- | --- | --- | --- | --- | --- | --- | --- | --- | --- | --- | --- |
| COc1cc(-c2cncc(-c3ccc(N4CCN(C)CC4)cc3)c2C)cc(F)c1C(N)=O [Compound 26a, 2-Fluoro-6-methoxy-4-(4-methyl-5-(4-(4-methylpiperazin-1-yl)phenyl)pyridin-3-yl)benzamide] | 103% and 97.4% | 54.6 | 100.98 | 74.69 | 92.71 | 82.79 | 101.44 | 97.39 | 100 | 95.7 | 102 | 86.4 | 94.9 | 97.8 |
| COc1cc(-c2cncc(-c3ccc(N4C[C@@H](C)N(C)[C@@H](C)C4)cc3)c2C)cc(F)c1C(N)=O [Compound 26c, 2-Fluoro-6-methoxy-4-(4-methyl-5-(4-((3R,5S)-3,4,5-trimethylpiperazin-1-yl)phenyl)pyridin-3-yl)benzamide] | 106% and 105% | 48.7 | 102.08 | 86.35 | 97.52 | 95.24 | 97.50 | 96.61 | 103 | 94 | 99 | 98.5 | 98.8 | 121 |
